The nature of series [1]: Particle size of EPO mRNA-encapsulating lipid nanoparticles. The format is physicochemical. The protocol: (§1) The compounds described in Table 1, the neutral lipid, cholesterol (product name: Cholesterol HP; NIPPON FINE CHEMICAL CO., LTD.), and 1,2-dimyristoyl-rac-glycero-3-(methylpolyoxyethylene 2000) (hereinafter, called DMG-PEG2000) (product name: SUNBRIGHT® GM-020; NOF corporation) were dissolved in ethanol at a molar ratio of ionized lipid:neutral lipid:cholesterol:DMG-PEG2000=50:10:38.5:1.5 mol % such that the total lipid concentration was 12.5 mmol/L, to obtain an oil phase.
(§2) As the neutral lipid, 1,2-distearoyl-sn-glycero-3-phosphocholine (product name: COATSOME® MC-8080; NOF corporation) (hereinafter, DSPC), or L-α-dioleoylphosphatidylethanolamine (hereinafter, DOPE) (product name: COATSOME® MC-8181; NOF corporation) was used.
(§3) EPO mRNA (product name: CleanCap EPO mRNA (5 moU); TriLink) was diluted with 50 mmol/L citrate buffer having a pH 4.0 such that the weight ratio of total lipid concentration to mRNA concentration is about 20:1 to 64:1, thereby obtaining a water phase. Then, the water phase and the oil phase were mixed together using NanoAssemblr (Precision NanoSystems) such that the volume ratio of water phase:oil phase was 3:1. The mixed solution was diluted 2-fold with any of phosphate buffered physiological saline (PBS), water, or a 20 mmol/L Tris buffer solution (pH 7.4) to obtain a dispersion liquid of mRNA lipid nanoparticles. The dispersion liquid was dialyzed with 20 mmol/L Tris buffer solution (pH 7.4) containing 8% sucrose using a dialysis cassette (Slide-A-Lyzer G2, MWCO: 10 kD, Thermo Fisher Scientific) to remove ethanol, thereby obtaining EPO mRNA-encapsulating lipid nanoparticles.
The particle size of the mRNA-encapsulating lipid nanoparticles was measured by 5-fold diluting the dispersion liquid of lipid nanoparticle with phosphate buffered physiological saline (PBS) using a particle size measurement device NanoSaqla (Otsuka Electronics Co., Ltd.).

The test system of the next series is EPO mRNA. Briefly: mRNA encapsulation rate of mRNA lipid nanoparticles. The class given is physicochemical. The protocol: as §1, §2, §3
EPO mRNA was diluted with MilliQ water to prepare a diluted sample in 2-fold dilution series from 100 µg/mL to […], and a calibration curve solution was prepared. 50 μL of the calibration curve solution or the mRNA lipid nanoparticles was mixed with 450 μL of methanol to prepare a measurement solution.
The absorbance of each measurement solution at 260 nm and 330 nm was measured using a UV plate reader (Multiskan Go, Thermo Fisher Scientific), the absorbance at 330 nm was subtracted from the absorbance at 260 nm, and the result was defined as the absorbance of each measurement solution. The total […] nucleic acid concentration was calculated from the calibration curve using the absorbance of each sample measurement solution.
The concentration of the outer water phase nucleic acid was quantified by a standard addition method using a QuanT-iT RiboGreen RNA Assay Kit (Thermo Fisher Scientific). First, a 20× TE buffer included in the above kit was diluted with water, thereby obtaining a 1×TE buffer. TE represents Tris/EDTA (ethylenediaminetetraacetic acid). EPO mRNA was diluted with a TE buffer such that the final concentration was 0 to 400 ng/mL to prepare a nucleic acid diluted series. 10 μL of mRNA lipid nanoparticles diluted 5-fold with TE buffer and 90 µL of a nucleic acid dilution series were mixed in a 96-well plate, 100 μL of a Ribogreen reagent diluted 200-fold with TE buffer was added to each well, and then fluorescence (excitation wavelength: 485 nm, fluorescence wavelength: 535 nm) was measured using a fluorescence plate reader (Infinite 200 Pro M nano+, TECAN). From the obtained results, the outer water phase nucleic acid concentration of each measurement solution was calculated according to the standard addition method.
By using the quantification results of the total mRNA concentration and the mRNA concentration in the outer water phase that were obtained through the above steps, the mRNA encapsulation rate of the mRNA lipid nanoparticles was calculated according to the following Equation. […]

Another series deals with ICR mice. Briefly: EPO protein expression in mice after intravenous EPO mRNA lipid nanoparticles. To be noted: mRNA 0.1 mg/kg, plasma 6 hours after administration. The format is in vivo. As for the experimental part: as §1, §2, §3
The dispersion liquid of mRNA lipid nanoparticles prepared in above <Preparation of EPO mRNA-encapsulating lipid nanoparticles> was intravenously administered to ICR mice at a mRNA dosage of 0.1 mg/kg. 6 hours after the administration, blood was collected from the caudal vena cava, thereby obtaining plasma. The human EPO […] was quantified by using the obtained blood plasma and Erythropoietin (EPO) Human Elisa Kit (Abcam.plc). The quantitative value is described as a relative amount of EPO protein in a case where Comparative Example 1 is 1.

[2] abbreviates: LNP with neutral lipid DOPE, mixed solution PBS, Lipid/Nucleic acid (wt/wt) 64.
The mark [3] stands for this setting: neutral lipid DOPE, Lipid/Nucleic acid (wt/wt) 64, Comparative Example 1 is 1.
Where [4] appears, read: LNP with neutral lipid DSPC, mixed solution 20 mM Tris, Lipid/Nucleic acid (wt/wt) 20.
Setting [5] is: LNP with neutral lipid DSPC, mixed solution PBS, Lipid/Nucleic acid (wt/wt) 20.
Where [6] appears, read: LNP with neutral lipid DSPC, mixed solution Water, Lipid/Nucleic acid (wt/wt) 20.
Where [7] appears, read: neutral lipid DSPC, Lipid/Nucleic acid (wt/wt) 20, Comparative Example 1 is 1.

With `CCCCCCCCN(CCCCCCCC)C(=O)OCCN(CCOC(=O)N(CCCCCCCC)CCCCCCCC)CCN(CC)CC` [Example 1, ((2-(diethylamino)ethyl)azanediyl)bis(ethan-2,1-diyl)bis(dioctylcarbamate)], in series [1] (setting [2]), the “Particle size (nm)” value turned out to be 88.6 nm. The “Nucleic acid encapsulation rate (%)” value in the series with EPO mRNA (setting [2]) is over 99%. Moreover, the “Relative amount of EPO protein (to Comparative Example 1)” value (shortened to “Relative amount of EPO protein”) in the series on ICR mice (setting [3]) was 21.60.
Take `CCCCCCN(CCCCC(=O)OCC(CCCCC)CCCCC)C(=O)OCCN(CCOC(=O)N(CCCCCC)CCCCC(=O)OCC(CCCCC)CCCCC)CCN(CC)CC` [Example 4, bis(2-pentylheptyl) 11-(2-(diethylamino)ethyl)-6,16-dihexyl-7,15-dioxo-8,14-dioxa-6,11,16-triazahenicosanedioate]: the “Particle size (nm)” value is on record as 109.5 nm in series [1] (setting [2]), 96 nm in series [1] (setting [4]), 94 nm in series [1] (setting [5]) and 93 nm in series [1] (setting [6]). For the same compound, the “Nucleic acid encapsulation rate (%)” value is over 99% in the series on EPO mRNA (setting [2]), 91% with EPO mRNA (setting [4]), 92% in the series on EPO mRNA (setting [5]) and 91% in the series on EPO mRNA (setting [6]). Moreover, the figures for the “Relative amount of EPO protein” value in the series on ICR mice (setting [3]) and in the series on ICR mice (setting [7]) were 13.62 and 12.27, respectively.
In the case of `CCCCCCCCN(CCCCC(=O)OCC(CCCCC)CCCCC)C(=O)OCCN(CCOC(=O)N(CCCCCCCC)CCCCC(=O)OCC(CCCCC)CCCCC)CCN(CC)CC` [Example 3, Bis(2-pentylheptyl) 11-(2-(diethylamino)ethyl)-6,16-dioctyl-7,15-dioxo-8,14-dioxa-6,11,16-triazahenicosanedioate], the “Particle size (nm)” value in series [1] (setting [2]) is recorded as 94.5 nm; in series [1] (setting [5]), 78 nm. The “Nucleic acid encapsulation rate (%)” value with EPO mRNA (setting [2]) is on record as 99%; in the series with EPO mRNA (setting [5]), 94%. For the same compound, the results for the “Relative amount of EPO protein” value with ICR mice (setting [3]) and with ICR mice (setting [7]) were 13.55 and 6.15, respectively.
With `CCCCCCN(CCCCCC(=O)OCC(CCCCC)CCCCC)C(=O)OCCN(CCCN(CC)CC)CCOC(=O)N(CCCCCC)CCCCCC(=O)OCC(CCCCC)CCCCC` [Example 26, Bis(2-pentylheptyl) 12-(3-(diethylamino)propyl)-7,17-dihexyl-8,16-dioxo-9,15-dioxa-7,12,17-triazatricosanedioate], the “Particle size (nm)” value in series [1] (setting [5]) amounted to 178 nm. The “Nucleic acid encapsulation rate (%)” value in the series with EPO mRNA (setting [5]) turned out to be 91%. For the same compound, the “Relative amount of EPO protein” value in the series on ICR mice (setting [7]) turned out to be 4.10.
For the compound `CCCCCCCCCCOC(=O)CN(CC(=O)OCCCCCCCCCC)C(=O)OCCN(CCOC(=O)N(CC(=O)OCCCCCCCCCC)CC(=O)OCCCCCCCCCC)CCN(CC)CC` [Example 27, Decyl 2-(2-(2-(bis(2-decoxy-2-oxo-ethyl)carbamoyloxy)ethyl-(2-(diethylamino)ethyl)amino)ethoxycarbonyl-(2-decoxy-2-oxo-ethyl)amino)acetate], the “Particle size (nm)” value in series [1] (setting [5]) is reported as 149 nm. In addition, in the series with EPO mRNA (setting [5]), the “Nucleic acid encapsulation rate (%)” value is reported as 82%. In the series with ICR mice (setting [7]), the “Relative amount of EPO protein” value turned out to be 3.85.
Taken in the same sequence, the figures for `CCCCCCCN(CCCCCC(=O)OCC(CCCCC)CCCCC)C(=O)OCCN(CCCN(CC)CC)CCOC(=O)N(CCCCCCC)CCCCCC(=O)OCC(CCCCC)CCCCC` [Example 48, Bis(2-pentylheptyl) 12-(3-(diethylamino)propyl)-7,17-diheptyl-8,16-dioxo-9,15-dioxa-7,12,17-triazatricosanedioate] were 90 nm, 96% and 2.26.
As to `CCCCCCC(CCCCCC)COC(=O)CCCCCN(CCCC)C(=O)OCCN(CCOC(=O)N(CCCC)CCCCCC(=O)OCC(CCCCCC)CCCCCC)CCN(CC)CC` [Example 47, Bis(2-hexyloctyl) 7,17-dibutyl-12-(2-(diethylamino)ethyl)-8,16-dioxo-9,15-dioxa-7,12,17-triazatricosanedioate], the “Particle size (nm)” value in series [1] (setting [5]) turned out to be 114 nm. In addition, the “Nucleic acid encapsulation rate (%)” value in the series with EPO mRNA (setting [5]) was found to be 91%. In addition, the “Relative amount of EPO protein” value with ICR mice (setting [7]) is listed as 1.46.
Taken in the same sequence, the figures for `CCCCCCCN(CCCCCC(=O)OCC(CCCCC)CCCCC)C(=O)OCCN(CCOC(=O)N(CCCCCCC)CCCCCC(=O)OCC(CCCCC)CCCCC)CCN(CC)CC` [Example 45, Bis(2-pentylheptyl) 12-(2-(diethylamino)ethyl)-7,17-diheptyl-8,16-dioxo-9,15-dioxa-7,12,17-triazatricosanedioate] were 84 nm, 95% and 2.19.
Taken in the same sequence, the figures for `CCCCCCCCN(CCCCC(=O)OCC(CCCCC)CCCCC)C(=O)OCCN(CCCCN(CC)CC)CCOC(=O)N(CCCCCCCC)CCCCC(=O)OCC(CCCCC)CCCCC` [Example 36, Bis(2-pentylheptyl) 11-(4-(diethylamino)butyl)-6,16-dioctyl-7,15-dioxo-8,14-dioxa-6,11,16-triazahenicosanedioate] were 145 nm, 93% and 6.40.
Taken in the same sequence, the figures for `CCCCCC(CCCCC)COC(=O)CCCCCN(CCCCC)C(=O)OCCN(CCCN(CC)CC)CCOC(=O)N(CCCCC)CCCCCC(=O)OCC(CCCCC)CCCCC` [Example 49, bis(2-pentylheptyl) 12-(3-(diethylamino)propyl)-8,16-dioxo-7,17-dipentyl-9,15-dioxa-7,12,17-triazatricosanedioate] were 126 nm, 94% and 1.12.
In the case of `CCCCCCC(CCCCCC)COC(=O)CCCCN(CCCC)C(=O)OCCN(CCCN(CC)CC)CCOC(=O)N(CCCC)CCCCC(=O)OCC(CCCCCC)CCCCCC` [Example 24, Bis(2-hexyloctyl) 6,16-dibutyl-11-(3-(diethylamino)propyl)-7,15-dioxo-8,14-dioxa-6,11,16-triazahenicosanedioate], the “Particle size (nm)” value in series [1] (setting [5]) is 197 nm. In addition, in the series on EPO mRNA (setting [5]), the “Nucleic acid encapsulation rate (%)” value stood at 92%. Also, in the series on ICR mice (setting [7]), the “Relative amount of EPO protein” value stood at 1.48.
Taken in the same sequence, the figures for `CCCCCCCCN(CCCCCC(=O)OCC(CCCCC)CCCCC)C(=O)OCCN(CCOC(=O)N(CCCCCCCC)CCCCCC(=O)OCC(CCCCC)CCCCC)CCN(CC)CC` [Example 50, bis(2-pentylheptyl) 12-(2-(diethylamino)ethyl)-7,17-dioctyl-8,16-dioxo-9,15-dioxa-7,12,17-triazatricosanedioate] were 82 nm, 96% and 1.55.

For the origin of these results see patent US20250345459A1, “COMPOUND OR SALT THEREOF, LIPID COMPOSITION, PHARMACEUTICAL COMPOSITION, AND DELIVERY CARRIER” (FUJIFILM Corporation, priority 2023, published 2025).
